In patent US20150346214A1, “DETECTION OF MEMBRANE PROTEINS” (priority 2012, published 2015):
Entries after “also recorded” stand apart in the source; their conditions may differ.

Target: T1, mechanosensitive channel of large conductance (MscL) (Mycobacterium tuberculosis, UniProt P9WJN5)
T1 sequence (P9WJN5 1-151): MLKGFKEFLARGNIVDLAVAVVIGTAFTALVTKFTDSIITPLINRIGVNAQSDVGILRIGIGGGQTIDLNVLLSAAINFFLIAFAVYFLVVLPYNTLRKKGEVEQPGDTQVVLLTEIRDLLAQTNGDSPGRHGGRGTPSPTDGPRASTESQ
Assay: Gas-phase (collision-induced) unfolding IM-MS: stabilisation of MscL by bound phospholipid
Type: binding
Settings: +12 charge state, versus apo form

CCCCCCCC/C=C\CCCCCCCC(=O)OC[C@H](COP(=O)(O)O[C@H]1C(O)C(O)C(O)[C@@H](OP(=O)(O)O)C1O)OC(=O)CCCCCCC/C=C\CCCCCCCC (stereo partly shown) [PI]
average stabilisation of MscL by bound phospholipid (resistance to gas-phase unfolding): large increase in stability when binding multiple lipids, greater than all other phospholipids investigated; also recorded: Major cumulative effects on stability
